Experimental data taken from publication PMC11211886 (Frontiers in Pharmacology, 2024).
≈ marks a conversion by molar mass, not a printed value. Where “and” joins values, the source holds several entries; their conditions need not be identical. Identical values can stand only once. Like-named read-outs stand apart in the source and are kept apart here.

What was measured:
[1] = Single-dose PK in cynomolgus monkeys (IV/PO); type: in vivo, cynomolgus monkey
[2] = Tissue distribution in SD rats after oral dose; design: species or system SD rat; details: in vivo
Description: After blood collection, the rats were sacrificed, and 18 tissues, namely, brain, breast, skin, fat, testis, ovary, bladder, pancreas, skeletal muscle, heart, lung, kidney, liver, stomach, small intestine, colon, spleen, and spinal cord, were removed from the rats at designated time points. These tissues were washed with saline and dried with filter paper. […] (Cheongju-si, Korea). […] The weight of the collected samples was recorded. Samples were stored in a −20°C freezer until analysis.

[3] = target: T1, CYP2B6 (Homo sapiens, UniProt P20813); assay: Reversible CYP inhibition in HLM, CYP2B6 (bupropion); type: in vitro ADME; details: for enzyme activity remaining: CYP2B6, HLM
T1 construct: tissue Life Technologies (Durham, NC, USA); host or cells: human liver microsomes
T1 sequence (P20813 1-491): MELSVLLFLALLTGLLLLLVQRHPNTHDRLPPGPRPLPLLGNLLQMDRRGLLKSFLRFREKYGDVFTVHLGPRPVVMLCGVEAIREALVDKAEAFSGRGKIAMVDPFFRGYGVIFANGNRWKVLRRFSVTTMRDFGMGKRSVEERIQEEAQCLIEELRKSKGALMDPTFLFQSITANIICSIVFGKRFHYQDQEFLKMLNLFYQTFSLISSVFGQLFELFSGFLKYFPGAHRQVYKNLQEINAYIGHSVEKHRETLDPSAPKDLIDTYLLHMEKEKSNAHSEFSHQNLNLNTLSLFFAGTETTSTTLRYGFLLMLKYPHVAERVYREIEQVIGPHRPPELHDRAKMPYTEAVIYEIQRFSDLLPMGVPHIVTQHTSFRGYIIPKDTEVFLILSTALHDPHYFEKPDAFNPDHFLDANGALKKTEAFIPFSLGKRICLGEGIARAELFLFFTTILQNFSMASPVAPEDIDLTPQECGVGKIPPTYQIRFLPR
Description: (§1) The markers used to determine the activities of CYP isoforms were phenacetin O-deethylation for CYP1A2 (probe substrate: 50 µM phenacetin), bupropion hydroxylation for CYP2B6 (probe substrate: 70 µM bupropion), paclitaxel 6α-hydroxylation for CYP2C8 (probe substrate: 10 µM paclitaxel), diclofenac 4′-hydroxylation for CYP2C9 (probe substrate: 5 µM diclofenac), S-(+)-mephenytoin 4′-hydroxylation for CYP2C19 (probe substrate: 20 µM S-(+)-mephenytoin), dextromethorphan O-demethylation for CYP2D6 (probe substrate: 6 µM dextromethorphan), chlorzoxazone 6′-hydroxylation for CYP2E1 (probe substrate: 70 µM chlorzoxazone), and testosterone 6β-hydroxylation and midazolam 1′-hydroxylation for CYP3A4/5 (probe substrate: 45 µM testosterone and 5 µM midazolam). […] Alpha-naphthoflavone (0.04 µM), 2-phenyl-2-(1-piperidinyl)propane (5 µM), quercetin (1 µM), sulfaphenazole (0.5 µM), ticlopidine (4 µM), quinidine (0.2 µM), diethyldithiocarbamate (20 µM), and ketoconazole (0.05 µM) were used as positive inhibitors of CYP1A2, 2B6, 2C8, 2C9, 2C19, 2D6, 2E1, and 3A4, respectively. The vehicle control was prepared in the same composition as inhibitor solutions but free of inhibitors. The concentrations of probe substrates were close to Km values that were determined in-house and within the range recommended by the FDA ([Huang et al., 2007]). Reaction mixtures were incubated at 37°C for 5, 20, or 30 min, depending on the probe substrates of CYP isoforms. The reactions were terminated by adding cold acetonitrile containing IS, and the terminated incubation mixtures were centrifuged at 3,000 g for 10 min before LC-MS/MS analysis.

[4] = target: T2, CYP2C9 (Homo sapiens, UniProt P11712); assay: Reversible CYP inhibition in HLM, CYP2C9 (diclofenac); type: in vitro ADME; details: for enzyme activity remaining: CYP2C9, HLM
T2 construct: tissue Life Technologies (Durham, NC, USA); host or cells: human liver microsomes
Description: as §1

[5] = system: CYP3A4 mRNA; assay: CYP induction in human hepatocytes, CYP3A4 mRNA (RT-PCR); type: in vitro ADME
Description: […] […] […] Enzyme activity for each CYP isoform was reported as a fold change over vehicle control and the percent of positive control (detailed calculation in Supplementary 1.1). Hepatocytes were harvested with a lysis buffer from RNeasy 96 Kit (Qiagen Inc., Germantown, MD, USA) to isolate RNA, which was analyzed by real-time quantitative polymerase chain reaction (RT-PCR). […] Emax (the maximal observed induction) and EC50 (the concentration that supports half-maximal induction) were estimated by non-linear regression of fold increase in CYP mRNA expression versus concentration plots.
% of positive control = [(fold change in treated sample)-1] / [(fold change in positive control)-1] × 100

[6] = Solubility; type: physicochemical; details: water, pH 7.78
[7] = both sexes, cynomolgus monkey, in vivo, iv, 1 mg/kg
[8] = both sexes, cynomolgus monkey, in vivo, po, 5 mg/kg
[9] = HLM, reversible, without pre-incubation

T2 sequence (P11712 whole entry): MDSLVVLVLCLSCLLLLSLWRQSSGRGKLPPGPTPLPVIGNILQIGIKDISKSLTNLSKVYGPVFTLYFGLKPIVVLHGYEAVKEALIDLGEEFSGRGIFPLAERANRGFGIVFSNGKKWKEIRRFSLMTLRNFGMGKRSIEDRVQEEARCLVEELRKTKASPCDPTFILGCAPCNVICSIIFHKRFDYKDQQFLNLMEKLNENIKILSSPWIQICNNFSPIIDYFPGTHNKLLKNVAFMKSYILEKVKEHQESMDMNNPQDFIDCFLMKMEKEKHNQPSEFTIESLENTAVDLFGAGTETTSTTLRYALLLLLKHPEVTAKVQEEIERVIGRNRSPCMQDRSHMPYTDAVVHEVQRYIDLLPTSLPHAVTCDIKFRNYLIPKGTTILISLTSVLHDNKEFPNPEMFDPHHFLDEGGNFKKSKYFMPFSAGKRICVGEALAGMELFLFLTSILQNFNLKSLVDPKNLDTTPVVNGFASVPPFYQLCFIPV

C[C@H](Nc1ncnc(N)c1C#N)c1cc2ncc(Cl)n2nc1-c1ccccc1 [Amdizalisib]
FPO ([1]; Cynomolgus monkey, fasted, PO 5 mg/kg, 5 mg/kg): 30.8 ± 8.48%
AUC(0-inf) [1, 7]: 1520 ng·h/mL
AUC(0-t) [1, 7]: 1490 ng·h/mL
MRT [1, 7]: 2.2 ± 0.551 h
clearance [1, 7]: 11.3 ± 2.36 mL/min/kg
AUC(0-inf) [1, 8]: 2390 ng·h/mL
AUC(0-t) [1, 8]: 2330 ng·h/mL
Cmax [1, 8]: 480 ± 147 ng/mL
MRT [1, 8]: 4.9 ± 1 h
Tmax [1, 8]: 2 ± 0.632 h
half-life [1, 8]: 3.1 ± 0.89 h
Vd ([1]; both sexes, in vivo, Cynomolgus monkey, fasted, IV 1 mg/kg, read-out: Vss): 1.45 ± 0.207 L/kg
half-life ([1]; both sexes, in vivo, Cynomolgus monkey, fasted, IV 1 mg/kg, read-out: t1/2 (converted)): 2.82 ± 0.469 h
CL as % of the hepatic blood flow ([1]; both, cynomolgus monkey, in vivo, iv): 25.7%
FPO ([1]; both, cynomolgus monkey, in vivo, po, 5 mg/kg): 30.8%
half-life ([2]; SD, female rat, PO 5 mg/kg, pancreas): 3.38 h
half-life ([2]; SD, male rat, PO 5 mg/kg, liver): 1.76 h
Kp ([2]; both sexes, SD, rat, po, 5 mg/kg, exposure in the intestines versus plasma): 3 to 6
AUC(0-t) ([2]; female, SD, rat, po, 5 mg/kg): 11400 ng·h/mL
Cmax ([2]; female, SD, rat, po, 5 mg/kg): 993 ng/mL
Kp ([2]; female, SD, rat, po, 5 mg/kg, female rat, PO 5 mg/kg, colon, read-out: AUC0-t ratio of tissue/plasma): 1.52
Cmax ([2]; female, Sprague-Dawley, rat, po, 5 mg/kg): 6950 ng/g
AUC(0-t) ([2]; male, SD, rat, po, 5 mg/kg): 1380 ng·h/mL
Cmax ([2]; male, SD, rat, po, 5 mg/kg): 394 ng/mL
Tmax ([2]; male, SD, rat, po, 5 mg/kg, Tmax): 1 h
Kp ([2]; male, SD, rat, po, 5 mg/kg, male rat, PO 5 mg/kg, bladder, read-out: AUC0-t ratio of tissue/plasma): 1.08
Kp ([2]; male, SD, rat, po, 5 mg/kg, male rat, PO 5 mg/kg, pancreas, read-out: AUC0-t ratio of tissue/plasma): 3.97
Cmax ([2]; male, Sprague-Dawley, rat, po, 5 mg/kg): 5080 ng/g
enzyme activity remaining ([3]; 0.4 μM): 100% and 98.9%
enzyme activity remaining ([3]; 2 μM): 96.2% and 92.1%
enzyme activity remaining ([3]; 5 μM): 97.4% and 95.1%
enzyme activity remaining ([3]; 10 μM): 97.7% and 96.6%
enzyme activity remaining ([3]; 25 μM): 87.6%
enzyme activity remaining ([3]; 50 μM): 79.7% and 77.1%
IC50 [3, 9]: > 50 µM
enzyme activity remaining ([4]; 0.08 μM): 98.3% and 99.7%
enzyme activity remaining ([4]; 0.4 μM): 94.2% and 95.6%
enzyme activity remaining ([4]; 2 μM): 82.6%
enzyme activity remaining ([4]; 10 μM): 53.7% and 52.8%
enzyme activity remaining ([4]; 50 μM): 17.2% and 16.0%
IC50 [4, 9]: 10.7 µM
R3 value (CYP3A4 induction, basic kinetic model) [5]: ≤ 0.8
induction on CYP3A4 mRNA expression ([5]; 20 uM): >2-fold induction on CYP1A2, 2B6, 3A4, 2C9 mRNA expression at 20 uM
Gene expression Percent of PC (%) ([5]; CYP3A4, donor seven, 1 µM): 8.40%
Gene expression Percent of PC (%) ([5]; CYP3A4, donor seven, 3 µM): 2.70%
Gene expression Percent of PC (%) ([5]; CYP3A4, donor seven, 10 µM): 46.6%
Gene expression Percent of PC (%) ([5]; CYP3A4, donor seven, 20 µM): 23.3%
Gene expression Percent of PC (%) ([5]; CYP3A4, donor seven, 30 µM): 53.6%
Gene expression Percent of PC (%) ([5]; CYP3A4, donor six, 1 µM): 1.00%
Gene expression Percent of PC (%) ([5]; CYP3A4, donor six, 3 µM): 1.60%
Gene expression Percent of PC (%) ([5]; CYP3A4, donor six, 10 µM): 11.9%
Gene expression Percent of PC (%) ([5]; CYP3A4, donor six, 20 µM): 21.4%
Gene expression Percent of PC (%) ([5]; CYP3A4, donor six, 30 µM): 21.9%
Gene expression Percent of PC (%) ([5]; CYP3A4, donor two, 1 µM): 1.30%
Gene expression Percent of PC (%) ([5]; CYP3A4, donor two, 3 µM): 0.60%
Gene expression Percent of PC (%) ([5]; CYP3A4, donor two, 10 µM): 15.9%
Gene expression Percent of PC (%) ([5]; CYP3A4, donor two, 20 µM): 13.4%
Gene expression Percent of PC (%) ([5]; CYP3A4, donor two, 30 µM): 28.1%
Emax, CYP3A4 expression ([5]; donor seven): 6.97 fold
Emax, CYP3A4 expression ([5]; donor six): 35.7 fold
Emax, CYP3A4 expression ([5]; donor two): > 26.5 fold
solubility [6]: 25 µg/mL (≈ 64 µM)
